Reference: patent publication US12503436B2, “Compounds and compositions for treating conditions associated with STING activity” (NOVARTIS PHARMA AG, priority 2021, dated 2025)

Biological target: STING (Homo sapiens, UniProt Q86WV6, G230A/H232R/R293Q/R71H)
Test: STING reporter assay in THP1-Dual KO-IFNAR2 cells (2′3′cGAMP stimulation, luciferase reporter)
Assay type: cell-based
Conditions: 15 μM 2′3′cGAMP stimulation, 24 h, read-out: Pharmaron, THP1_IFNAR2 STING 24 h Luci Normalized: GeoMean EC50
Protocol: STING pathway activation by the compounds described herein was measured using THP1-Dual™ cells (KO-IFNAR2).
THP1-Dual™ KO-IFNAR2 Cells (obtained from InvivoGen) were maintained in RPMI, 10% FCS, 5 ml P/S, 2 mM L-glut, 10 mM Hepes, and 1 mM sodium pyruvate. Compounds were spotted in empty 384 well tissue culture plates (Greiner 781182) by Echo for a final concentration of 0.0017-100 μM. Cells were plated into the TC plates at 40 μL per well, 2×10E6 cells/mL. For activation with STING ligand, 2′3′cGAMP (MW 718.38, obtained from Invivogen), was prepared in Optimem media.
The following solutions were prepared for each 1×384 plate: • Solution A: 2 mL Optimem with one of the following stimuli: • 60 μL of 10 mM 2′3′cGAMP→150 μM stock • Solution B: 2 mL Optimem with 60 μL Lipofectamine 2000→Incubate 5 min at RT
2 mL of solution A and 2 ml Solution B was mixed and incubated for 20 min at room temperature (RT). 20 μL of transfection solution (A+B) was added on top of the plated cells, with a final 2′3′cGAMP concentration of 15 μM. The plates were then centrifuged immediately at 340 g for 1 minute, after which they were incubated at 37° C., 5% CO2, >98% humidity for 24 h. Luciferase reporter activity was then measured. EC50 values were calculated by using standard methods known in the art.
Luciferase reporter assay: 10 μL of supernatant from the assay was transferred to white 384-plate with flat bottom and squared wells. One pouch of QUANTI-Luc™ Plus was dissolved in 25 mL of water. 100 μL of QLC Stabilizer per 25 mL of QUANTI-Luc™ Plus solution was added. 50 μL of QUANTI-Luc™ Plus/QLC solution per well was then added. Luminescence was measured on a Platereader (e.g., Spectramax I3X (Molecular Devices GF3637001)).
Luciferase reporter activity was then measured. EC50 values were calculated by using standard methods known in the art.

STING, sequence (Q86WV6 whole entry R71H/G230A/H232R/R293Q): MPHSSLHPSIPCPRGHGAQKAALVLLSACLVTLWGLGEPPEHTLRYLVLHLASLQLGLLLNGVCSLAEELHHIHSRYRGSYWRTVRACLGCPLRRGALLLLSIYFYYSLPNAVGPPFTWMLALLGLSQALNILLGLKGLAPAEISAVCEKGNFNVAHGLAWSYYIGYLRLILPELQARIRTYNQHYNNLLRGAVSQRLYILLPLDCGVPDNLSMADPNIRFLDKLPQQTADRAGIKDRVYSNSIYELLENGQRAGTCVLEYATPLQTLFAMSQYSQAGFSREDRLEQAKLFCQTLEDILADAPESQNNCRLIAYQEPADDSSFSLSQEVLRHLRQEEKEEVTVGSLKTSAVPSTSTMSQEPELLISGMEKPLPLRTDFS

Compound	EC50 [nM]
CC(=O)Nc1c[nH]c2ccc(OCCc3ccc(C(F)(F)F)nc3)cc12 [Compound 113, N-(5-(2-(6-(trifluoromethyl)pyridin-3-yl)ethoxy)-1H-indol-3-yl)acetamide]	1000 to 5000
CC(=O)Nc1c[nH]c2ccc(Oc3ccc(C(F)(F)F)cn3)cc12 [Compound 116, N-(5-((5-(trifluoromethyl)pyridin-2-yl)oxy)-1H-indol-3-yl)acetamide]	5000 to 100000
CC(=O)Nc1c[nH]c2ccc(OCC3CCN(CC(F)(F)F)CC3)cc12 [Compound 119, N-(5-((1-(2,2,2-trifluoroethy|)piperidin-4-yl)methoxy)-1H-indol-3-yl)acetamide]	5000 to 100000
CC(=O)Nc1c[nH]c2ccc(OC[C@@H]3[C@H]4CN(CC(F)(F)F)C[C@@H]34)cc12 [Compound 120, N-(5-(((1R,5S,6r)-3-(2,2,2-trifluoroethyl)-3-azabicyclo[3.1.0]hexan-6-yl)methoxy)-1H-indol-3-yl)acetamide]	5000 to 100000
CC(=O)Nc1c[nH]c2ccc(Oc3ccc(C(F)(F)F)nc3)cc12 [Compound 123, N-(5-((6-(trifluoromethyl)pyridin-3-yl)oxy)-1H-indol-3-yl)acetamide]	5000 to 100000
CC(=O)Nc1c[nH]c2ccc(Oc3ccc(C(F)(F)F)cc3)cc12 [Compound 124, N-(5-(4-(trifluoromethyl)phenoxy)-1H-indol-3-yl)acetamide]	1000 to 5000
CC(=O)Nc1c[nH]c2ccc(CCNc3ccc(C(F)(F)F)nc3)cc12 [Compound 126, N-(5-(2-((6-(trifluoromethyl)pyridin-3-yl)amino)ethyl)-1H-indol-3-yl)acetamide]	1000 to 5000
CC(CCc1ccc(C(F)(F)F)cc1)c1ccc2[nH]cc(NC(=O)C3CCC3)c2c1 (stereo not drawn) [Compound 131, N-(5-(4-(4-(trifluoromethyl)phenyl)butan-2-yl)-1H-indol-3-yl)cyclobutanecarboxamide]	1000 to 5000
CC(Cc1ccc(C(F)(F)F)cc1)Cc1ccc2[nH]cc(NC(=O)C3CCC3)c2c1 (stereo not drawn) [Compound 137, N-(5-(2-methyl-3-(4-(trifluoromethyl)phenyl)propyl)-1H-indol-3-yl)cyclobutanecarboxamide]	1000 to 5000
CC(C)(C)OC(=O)N1CCC(CCOc2ccc3[nH]cc(NC(=O)C4CCC4)c3c2)CC1 [Compound 140, tert-butyl 4-(2-((3-(cyclobutanecarboxamido)-1H-indol-5-yl)oxy)ethyl)piperidine-1-carboxylate]	200 to 1000
O=C(Nc1c[nH]c2ccc(CCc3ccc(C(F)(F)F)cc3)cc12)C1CCC1 [Compound 141, N-(5-(4-(trifluoromethyl)phenethyl)-1H-indol-3-yl)cyclobutanecarboxamide]	1000 to 5000
O=C(Nc1c[nH]c2ccc(OCCc3ccc(C(F)(F)F)nc3)cc12)C1CCC1 [Compound 142, N-(5-(2-(6-(trifluoromethyl)pyridin-3-yl)ethoxy)-1H-indol-3-yl)cyclobutanecarboxamide]	200 to 1000
CCO/C=C/c1ccc2[nH]cc(NC(=O)C3CCC3)c2c1 [Compound 143, (E)-N-(5-(2-ethoxyvinyl)-1H-indol-3-yl)cyclobutanecarboxamide]	1000 to 5000
O=C(Nc1c[nH]c2ccc(/C=C/c3ccc(C(F)(F)F)cc3)cc12)C1CCC1 [Compound 144, (E)-N-(5-(4-(trifluoromethyl)styryl)-1H-indol-3-yl)cyclobutanecarboxamide]	5000 to 100000
O=C(Nc1c[nH]c2ccc(CCOc3ccc(C(F)(F)F)cc3)cc12)C1CCC1 [Compound 145, N-(5-(2-(4-(trifluoromethyl)phenoxy)ethyl)-1H-indol-3-yl)cyclobutanecarboxamide]	200 to 1000
O=C(Nc1c[nH]c2ccc(O[C@H]3C[C@H](c4ccc(C(F)(F)F)cc4)C3)cc12)C1CC1 [Compound 147, N-(5-(trans-3-(4-(trifluoromethyl)phenyl)cyclobutoxy)-1H-indol-3-yl)cyclopropanecarboxamide]	40 to 200
CC1(C(=O)Nc2c[nH]c3ccc(O[C@H]4C[C@H](c5ccc(C(F)(F)F)cc5)C4)cc23)COC1 [Compound 148, 3-methyl-N-(5-(trans-3-(4-(trifluoromethyl)phenyl)cyclobutoxy)-1H-indol-3-yl)oxetane-3-carboxamide]	200 to 1000

Other lines, results leading:

EC50 [nM]	Compound
200 to 1000	CC(=O)Nc1c[nH]c2ccc(CCC3CCN(CC(F)(F)F)CC3)cc12 [Compound 114, N-(5-(2-(1-(2,2,2-trifluoroethyl)piperidin-4-yl)ethyl)-1H-indol-3-yl)acetamide]
40 to 200	CC(=O)Nc1c[nH]c2ccc(COc3ccc(C(F)(F)F)cc3)cc12 [Compound 115, N-(5-((4-(trifluoromethyl)phenoxy)methyl)-1H-indol-3-yl)acetamide]
200 to 1000	COCC(=O)Nc1c[nH]c2ccc(OCCC3CCN(CC(F)(F)F)CC3)cc12 [Compound 117, 2-methoxy-N-(5-(2-(1-(2,2,2-trifluoroethyl)piperidin-4-yl)ethoxy)-1H-indol-3-yl)acetamide]
200 to 1000	CC(C)(O)CC(=O)Nc1c[nH]c2ccc(OCCC3CCN(CC(F)(F)F)CC3)cc12 [Compound 118, 3-hydroxy-3-methyl-N-(5-(2-(1-(2,2,2-trifluoroethyl)piperidin-4-yl)ethoxy)-1H-indol-3-yl)butanamide]
200 to 1000	COCCCC(=O)Nc1c[nH]c2ccc(OCCC3CCN(CC(F)(F)F)CC3)cc12 [Compound 121, 4-methoxy-N-(5-(2-(1-(2,2,2-trifluoroethyl)piperidin-4-yl)ethoxy)-1H-indol-3-yl)butanamide]
200 to 1000	CC(=O)Nc1c[nH]c2ccc(OCCC3CCN(CC(F)(F)F)CC3)cc12 [Compound 122, N-(5-(2-(1-(2,2,2-trifluoroethyl)piperidin-4-yl)ethoxy)-1H-indol-3-yl)acetamide]
200 to 1000	CC(=O)Nc1c[nH]c2ccc(CNc3ccc(C(F)(F)F)nc3)cc12 [Compound 125, N-(5-(((6-(trifluoromethyl)pyridin-3-yl)amino)methyl)-1H-indol-3-yl)acetamide]
40 to 200	CC(=O)Nc1c[nH]c2ccc(CCOc3ccc(C(F)(F)F)cc3)cc12 [Compound 127, N-(5-(2-(4-(trifluoromethyl)phenoxy)ethyl)-1H-indol-3-yl)acetamide]
200 to 1000	CC(=O)Nc1c[nH]c2ccc(Cc3ccc(C(F)(F)F)cc3)cc12 [Compound 128, N-(5-(4-(trifluoromethyl)benzyl)-1H-indol-3-yl)acetamide]
200 to 1000	O=C(Nc1c[nH]c2ccc(OCCC3CCN(CC(F)(F)F)CC3)cc12)C1CCC1 [Compound 129, N-(5-(2-(1-(2,2,2-trifluoroethyl)piperidin-4-yl)ethoxy)-1H-indol-3-yl)cyclobutanecarboxamide]
200 to 1000	CCC(=O)Nc1c[nH]c2ccc(COc3ccc(C(F)(F)F)cc3)cc12 [Compound 130, N-(5-((4-(trifluoromethyl)phenoxy)methyl)-1H-indol-3-yl)propionamide]
40 to 200	CC(=O)Nc1c[nH]c2ccc(CCCc3ccc(C(F)(F)F)cc3)cc12 [Compound 132, N-(5-(3-(4-(trifluoromethyl)phenyl)propyl)-1H-indol-3-yl)acetamide]
200 to 1000	COC(CCc1ccc2[nH]cc(NC(=O)C3CCC3)c2c1)c1ccc(C(F)(F)F)cc1 (stereo not drawn) [Compound 133, N-(5-(3-methoxy-3-(4-(trifluoromethyl)phenyl)propyl)-1H-indol-3-yl)cyclobutanecarboxamide]
200 to 1000	O=C(Nc1c[nH]c2ccc(CCNc3ccc(C(F)(F)F)cn3)cc12)C1CCC1 [Compound 134, N-(5-(2-((5-(trifluoromethyl)pyridin-2-yl)amino)ethyl)-1H-indol-3-yl)cyclobutanecarboxamide]
200 to 1000	O=C(Nc1c[nH]c2ccc(/C=C/Cc3ccc(C(F)(F)F)cc3)cc12)C1CCC1 [Compound 135, (E)-N-(5-(3-(4-(trifluoromethyl)phenyl)prop-1-en-1-yl)-1H-indol-3-yl)cyclobutanecarboxamide]
40 to 200	CC(=O)Nc1c[nH]c2ccc(OCCc3ccc(C(F)(F)F)cc3)cc12 [Compound 136, N-(5-(4-(trifluoromethyl)phenethoxy)-1H-indol-3-yl)acetamide]
200 to 1000	CCC(=O)Nc1c[nH]c2ccc(OCc3ccc(C(F)(F)F)cc3)cc12 [Compound 138, N-(5-((4-(trifluoromethyl)benzyl)oxy)-1H-indol-3-yl)propionamide]
40 to 200	O=C(Nc1c[nH]c2ccc(CCCc3ccc(C(F)(F)F)cc3)cc12)C1CCC1 [Compound 139, N-(5-(3-(4-(trifluoromethyl)phenyl)propyl)-1H-indol-3-yl)cyclobutanecarboxamide]
40 to 200	CCC(=O)Nc1c[nH]c2ccc(OCCc3ccc(C(F)(F)F)cc3)cc12 [Compound 146, N-(5-(4-(trifluoromethyl)phenethoxy)-1H-indol-3-yl)propionamide]
